{
  "source": "patent US7776847B2",
  "about": "“Benzisothiazoles useful for treating or preventing HCV infection” (priority 2005, dated 2010)",
  "data": [
    {"tested_on": "HCV replicon", "test": "HCV replicon luciferase reporter assay", "type": "cell-based", "set-up": "scale not given here", "conditions": "Hepatitis C virus", "method": "(§1) The inhibitory activity of certain exemplary compounds of the invention was confirmed using an HCV replicon assay. The HCV replicon can include such features as the HCV IRES, the HCV 3′ untranslated region, selected HCV genes encoding HCV polypeptides, selectable markers, and a reporter gene such as luciferase, GFP, etc. In the assay, actively dividing replicon-comprising cells were seeded at a density of between about 5,000 and 7,500 cells/well onto 96 well plates (about 90 μl of cells per well) and incubated at 37° C. and 5% CO2 for 24 hours. Then, the test compound (in a volume of about 10 μL) was added at various concentrations to each well and the cells were incubated for an additional 24-48 hours. The cells were harvested, and HCV replication or translation was monitored via a reporter assay, e.g., a luciferase reporter assay. The media was aspirated from each cell and Bright-Glo ([…].) luciferase assay reagents were added to each well according to the manufacturer's instructions. In this assay, the amount of test compound that yielded a 50% reduction in luciferase activity (IC50) was determined.", "units": {"IC50": "µM"}, "values": [
      {"smiles": "O=C(N1CCc2ccc(S(=O)(=O)NCCCNc3nsc4ccccc34)cc2C1)C(F)(F)F", "note": "[Compound 252, N-(3-(benzo[d]isothiazol-3-ylamino)propyl)-2-(2,2,2-trifluoroacetyl)-1,2,3,4-tetrahydroisoquinoline-7-sulfonamide]", "IC50": "< 5"}
    ]},
    {"tested_on": "HCV replicon", "test": "HCV replicon luciferase reporter assay", "type": "cell-based", "set-up": "scale not given here", "conditions": "Hepatitis C virus, Table 5; read-out: IC50", "method": "as §1", "units": {"IC50": "µM"}, "values": [
      {"smiles": "O=[N+]([O-])c1cccc(S(=O)(=O)NCCCNc2nsc3ccccc23)c1", "note": "[Compound 242, N-(3-(benzo[d]isothiazol-3-ylamino)propyl)-3-nitrobenzenesulfonamide]", "IC50": "< 5"},
      {"smiles": "COC(=O)c1ccccc1S(=O)(=O)NCCCNc1nsc2ccccc12", "note": "[Compound 243, methyl 2-(N-(3-(benzo[d]isothiazol-3-ylamino)propyl)sulfamoyl)benzoate]", "IC50": "< 5"},
      {"smiles": "COC(=O)c1ccc(S(=O)(=O)NCCCNc2nsc3ccccc23)o1", "note": "[Compound 244, methyl 5-(N-(3-(benzo[d]isothiazol-3-ylamino)propyl)sulfamoyl)furan-2-carboxylate]", "IC50": "< 5"},
      {"smiles": "O=S(=O)(NCCCNc1nsc2ccccc12)c1ccc(C(F)(F)F)cc1", "note": "[Compound 245, N-(3-(benzo[d]isothiazol-3-ylamino)propyl)-4-(trifluoromethyl)benzenesulfonamide]", "IC50": "< 5"},
      {"smiles": "O=S(=O)(NCCCNc1nsc2ccccc12)c1cc(C(F)(F)F)cc(C(F)(F)F)c1", "note": "[Compound 246, N-(3-(benzo[d]isothiazol-3-ylamino)propyl)-3,5-bis(trifluoromethyl)benzenesulfonamide]", "IC50": "< 5"},
      {"smiles": "Cc1nc(S(=O)(=O)NCCCNc2nsc3ccccc23)cn1C", "note": "[Compound 248, N-(3-(benzo[d]isothiazol-3-ylamino)propyl)-1,2-dimethyl-1H-imidazole-4-sulfonamide]", "IC50": "< 5"},
      {"smiles": "O=S(=O)(NCCCNc1nsc2ccccc12)c1cccc2cccnc12", "note": "[Compound 249, N-(3-(benzo[d]isothiazol-3-ylamino)propyl)quinoline-8-sulfonamide]", "IC50": "< 5"},
      {"smiles": "O=S(=O)(NCCCNc1nsc2ccccc12)c1ccc(F)c(F)c1F", "note": "[Compound 250, N-(3-(benzo[d]isothiazol-3-ylamino)propyl)-2,3,4-trifluorobenzenesulfonamide]", "IC50": "< 5"},
      {"smiles": "COc1ccc(S(=O)(=O)NCCCNc2nsc3ccccc23)cc1", "note": "[Compound 251, N-(3-(benzo[d]isothiazol-3-ylamino)propyl)-4-methoxybenzenesulfonamide]", "IC50": "< 5"},
      {"smiles": "O=S(=O)(NCCCNc1nsc2ccccc12)c1c(F)cc(F)cc1Br", "note": "[Compound 253, N-(3-(benzo[d]isothiazol-3-ylamino)propyl)-2-bromo-4,6-difluorobenzenesulfonamide]", "IC50": "< 5"},
      {"smiles": "O=S(=O)(c1ccccc1C(F)(F)F)N(CCCNc1nsc2ccccc12)Cc1ccccc1", "note": "[Compound 254, N-(3-(benzo[d]isothiazol-3-ylamino)propyl)-N-benzyl-2-(trifluoromethyl)benzenesulfonamide]", "IC50": "< 5"},
      {"smiles": "COc1ccc(-c2ccc(CN(CCCNc3nsc4ccccc34)C(=O)CN3CCOCC3)cc2)cc1", "note": "[Compound 255, N-(3-(benzo[d]isothiazol-3-ylamino)propyl)-N-((4′-methoxybiphenyl-4-yl)methyl)-2-morpholinoacetamide]", "IC50": "< 5"},
      {"smiles": "COc1ccc(-c2ccc(CN(CCCNc3nsc4ccccc34)C(=O)CN3CCN(c4ccccc4)CC3)cc2)cc1", "note": "[Compound 256, N-(3-(benzo[d]isothiazol-3-ylamino)propyl)-N-((4′-methoxybiphenyl-4-yl)methyl)-2-(4-phenylpiperazin-1-yl)acetamide]", "IC50": "< 5"},
      {"smiles": "COc1ccc(-c2ccc(CN(CCCNc3nsc4ccccc34)C(=O)CNC(C)C)cc2)cc1", "note": "[Compound 257, N-(3-(benzo[d]isothiazol-3-ylamino)propyl)-2-(isopropylamino)-N-((4′-methoxybiphenyl-4-yl)methyl)acetamide]", "IC50": "< 5"},
      {"smiles": "COc1ccc(NS(=O)(=O)c2ccc(CNCCCNc3nsc4ccccc34)cc2)cc1", "note": "[Compound 258, 4-((3-(benzo[d]isothiazol-3-ylamino)propylamino)methyl)-N-(4-methoxyphenyl)benzenesulfonamide]", "IC50": "< 5"},
      {"smiles": "O=S(=O)(c1ccc(CNCCCNc2nsc3ccccc23)cc1)N1CCOCC1", "note": "[Compound 259, N^1-(benzo[d]isothiazol-3-yl)-N^3-(4-(morpholinosulfonyl)benzyl)propane-1,3-diamine]", "IC50": "> 5"},
      {"smiles": "O=S(=O)(c1ccc(CNCCCNc2nsc3ccccc23)cc1)N1CCCC1", "note": "[Compound 260, N^1-(benzo[d]isothiazol-3-yl)-N^3-(4-(pyrrolidin-1-ylsulfonyl)benzyl)propane-1,3-diamine]", "IC50": "> 5"},
      {"smiles": "COc1ccc(OC)c(S(=O)(=O)NCCCNc2nsc3ccccc23)c1", "note": "[Compound 261, N-(3-(benzo[d]isothiazol-3-ylamino)propyl)-2,5-dimethoxybenzenesulfonamide]", "IC50": "< 5"},
      {"smiles": "O=S(=O)(NCCCNc1nsc2ccccc12)c1ccc(Br)cc1Cl", "note": "[Compound 262, N-(3-(benzo[d]isothiazol-3-ylamino)propyl)-4-bromo-2-chlorobenzenesulfonamide]", "IC50": "< 5"},
      {"smiles": "O=S(=O)(NCCCNc1nsc2ccccc12)c1ccc(Br)cc1C(F)(F)F", "note": "[Compound 263, N-(3-(benzo[d]isothiazol-3-ylamino)propyl)-4-bromo-2-(trifluoromethyl)benzenesulfonamide]", "IC50": "< 5"},
      {"smiles": "COc1ccc(S(=O)(=O)NCCCNc2nsc3ccccc23)cc1OC", "note": "[Compound 264, N-(3-(benzo[d]isothiazol-3-ylamino)propyl)-3,4-dimethoxybenzenesulfonamide]", "IC50": "< 5"},
      {"smiles": "Cc1cc(S(=O)(=O)NCCCNc2nsc3ccccc23)ccc1Br", "note": "[Compound 265, N-(3-(benzo[d]isothiazol-3-ylamino)propyl)-4-bromo-3-methylbenzenesulfonamide]", "IC50": "< 5"},
      {"smiles": "O=S(=O)(NCCCNc1nsc2ccccc12)c1cccc(OC(F)(F)F)c1", "note": "[Compound 266, N-(3-(benzo[d]isothiazol-3-ylamino)propyl)-3-(trifluoromethoxy)benzenesulfonamide]", "IC50": "< 5"},
      {"smiles": "O=S(=O)(NCCCNc1nsc2ccccc12)c1c(Cl)cc(Br)cc1Cl", "note": "[Compound 267, N-(3-(benzo[d]isothiazol-3-ylamino)propyl)-4-bromo-2,6-dichlorobenzenesulfonamide]", "IC50": "< 5"},
      {"smiles": "O=S(=O)(NCCCNc1nsc2ccccc12)c1cccc(Br)c1", "note": "[Compound 268, N-(3-(benzo[d]isothiazol-3-ylamino)propyl)-3-bromobenzenesulfonamide]", "IC50": "< 5"},
      {"smiles": "O=S(=O)(NCCCNc1nsc2ccccc12)c1ccc(Br)c(C(F)(F)F)c1", "note": "[Compound 269, N-(3-(benzo[d]isothiazol-3-ylamino)propyl)-4-bromo-3-(trifluoromethyl)benzenesulfonamide]", "IC50": "< 5"},
      {"smiles": "COc1ccc(-c2ccc(CN(CCCNc3nsc4ccccc34)S(=O)(=O)c3ccccc3C(F)(F)F)cc2)cc1", "note": "[Compound 270, N-(3-(benzo[d]isothiazol-3-ylamino)propyl)-N-((4′-methoxybiphenyl-4-yl)methyl)-2-(trifluoromethyl)benzenesulfonamide]", "IC50": "< 5"},
      {"smiles": "CCCc1ccc(C(=O)NCCCNc2nsc3ccccc23)cc1", "note": "[Compound 273, N-(3-(benzo[d]isothiazol-3-ylamino)propyl)-4-propylbenzamide]", "IC50": "< 5"},
      {"smiles": "COc1cccnc1NCCCNc1nsc2ccccc12", "note": "[Compound 275, N^1-(benzo[d]isothiazol-3-yl)-N^3-(3-methoxypyridin-2-yl)propane-1,3-diamine]", "IC50": "< 5"},
      {"smiles": "FC(F)(F)c1cccnc1NCCCNc1nsc2ccccc12", "note": "[Compound 276, N^1-(benzo[d]isothiazol-3-yl)-N^3-(3-(trifluoromethyl)pyridin-2-yl)propane-1,3-diamine]", "IC50": "< 5"},
      {"smiles": "N#Cc1cccnc1NCCCNc1nsc2ccccc12", "note": "[Compound 277, 2-(3-(benzo[d]isothiazol-3-ylamino)propylamino)nicotinonitrile]", "IC50": "< 5"},
      {"smiles": "Cc1cccnc1NCCCNc1nsc2ccccc12", "note": "[Compound 278, N^1-(benzo[d]isothiazol-3-yl)-N^3-(3-methylpyridin-2-yl)propane-1,3-diamine]", "IC50": "< 5"},
      {"smiles": "CCCCc1ccc(C(=O)NCCNc2nsc3ccccc23)nc1", "note": "[Compound 279, N-(2-(benzo[d]isothiazol-3-ylamino)ethyl)-5-butylpicolinamide]", "IC50": "< 5"},
      {"smiles": "CCCCc1ccc(C(=O)NC(CNc2nsc3ccccc23)C(=O)O)cc1", "note": "(stereo not shown) [Compound 280, 3-(benzo[d]isothiazol-3-ylamino)-2-(4-butylbenzamido)propanoic acid]", "IC50": "> 5"},
      {"smiles": "Cc1cccc(NCCCNc2nsc3ccccc23)n1", "note": "[Compound 281, N^1-(benzo[d]isothiazol-3-yl)-N^3-(6-methylpyridin-2-yl)propane-1,3-diamine]", "IC50": "< 5"},
      {"smiles": "COc1ccc(NCCCNc2nsc3ccccc23)nc1", "note": "[Compound 282, N^1-(benzo[d]isothiazol-3-yl)-N^3-(5-methoxypyridin-2-yl)propane-1,3-diamine]", "IC50": "< 5"},
      {"smiles": "COc1cccc(NCCCNc2nsc3ccccc23)n1", "note": "[Compound 283, N^1-(benzo[d]isothiazol-3-yl)-N^3-(6-methoxypyridin-2-yl)propane-1,3-diamine]", "IC50": "< 5"}
    ]},
    {"biological_target": "HCV replicon", "test": "HCV replicon luciferase reporter assay", "type": "cell-based", "set-up": "scale not given here", "conditions": "Table 5; the head prints only IC50; b387 says Tables 5 and 6 hold Replicon reporter and Western blot results", "method": "as §1", "values": [
      {"smiles": "O=S(=O)(NCCNc1nsc2ccccc12)c1ccc(Cl)cc1", "note": "[Compound 271, N-(2-(benzo[d]isothiazol-3-ylamino)ethyl)-4-chlorobenzenesulfonamide]", "IC50": "A, B"},
      {"smiles": "c1ccc(CNCCNc2nsc3ccccc23)nc1", "note": "[Compound 272, N^1-(benzo[d]isothiazol-3-yl)-N^2-(pyridin-2-ylmethyl)ethane-1,2-diamine]", "IC50": "A, B"}
    ]}
  ]
}
